Test results published in US12391664B2, “GluN2C/D subunit selective antagonists of the N-methyl-D-aspartate receptor” (Emory University, priority 2018, dated 2025).

How the values were obtained:
[1] = target: T1, recombinant rat GluN1/GluN2A (Rattus norvegicus, UniProt Q00959); experiment: Two-electrode voltage-clamp recordings in Xenopus laevis oocytes, GluN2A; format: cell-based; settings: oocytes, 100 μM glutamate and 30 μM glycine
T1 construct: expressed in transfected cells; host or cells: Xenopus laevis oocytes injected with cRNA (GluN1:GluN2 ratio 1:2)
T1 sequence (Q00959 23-1464, other chains not shown): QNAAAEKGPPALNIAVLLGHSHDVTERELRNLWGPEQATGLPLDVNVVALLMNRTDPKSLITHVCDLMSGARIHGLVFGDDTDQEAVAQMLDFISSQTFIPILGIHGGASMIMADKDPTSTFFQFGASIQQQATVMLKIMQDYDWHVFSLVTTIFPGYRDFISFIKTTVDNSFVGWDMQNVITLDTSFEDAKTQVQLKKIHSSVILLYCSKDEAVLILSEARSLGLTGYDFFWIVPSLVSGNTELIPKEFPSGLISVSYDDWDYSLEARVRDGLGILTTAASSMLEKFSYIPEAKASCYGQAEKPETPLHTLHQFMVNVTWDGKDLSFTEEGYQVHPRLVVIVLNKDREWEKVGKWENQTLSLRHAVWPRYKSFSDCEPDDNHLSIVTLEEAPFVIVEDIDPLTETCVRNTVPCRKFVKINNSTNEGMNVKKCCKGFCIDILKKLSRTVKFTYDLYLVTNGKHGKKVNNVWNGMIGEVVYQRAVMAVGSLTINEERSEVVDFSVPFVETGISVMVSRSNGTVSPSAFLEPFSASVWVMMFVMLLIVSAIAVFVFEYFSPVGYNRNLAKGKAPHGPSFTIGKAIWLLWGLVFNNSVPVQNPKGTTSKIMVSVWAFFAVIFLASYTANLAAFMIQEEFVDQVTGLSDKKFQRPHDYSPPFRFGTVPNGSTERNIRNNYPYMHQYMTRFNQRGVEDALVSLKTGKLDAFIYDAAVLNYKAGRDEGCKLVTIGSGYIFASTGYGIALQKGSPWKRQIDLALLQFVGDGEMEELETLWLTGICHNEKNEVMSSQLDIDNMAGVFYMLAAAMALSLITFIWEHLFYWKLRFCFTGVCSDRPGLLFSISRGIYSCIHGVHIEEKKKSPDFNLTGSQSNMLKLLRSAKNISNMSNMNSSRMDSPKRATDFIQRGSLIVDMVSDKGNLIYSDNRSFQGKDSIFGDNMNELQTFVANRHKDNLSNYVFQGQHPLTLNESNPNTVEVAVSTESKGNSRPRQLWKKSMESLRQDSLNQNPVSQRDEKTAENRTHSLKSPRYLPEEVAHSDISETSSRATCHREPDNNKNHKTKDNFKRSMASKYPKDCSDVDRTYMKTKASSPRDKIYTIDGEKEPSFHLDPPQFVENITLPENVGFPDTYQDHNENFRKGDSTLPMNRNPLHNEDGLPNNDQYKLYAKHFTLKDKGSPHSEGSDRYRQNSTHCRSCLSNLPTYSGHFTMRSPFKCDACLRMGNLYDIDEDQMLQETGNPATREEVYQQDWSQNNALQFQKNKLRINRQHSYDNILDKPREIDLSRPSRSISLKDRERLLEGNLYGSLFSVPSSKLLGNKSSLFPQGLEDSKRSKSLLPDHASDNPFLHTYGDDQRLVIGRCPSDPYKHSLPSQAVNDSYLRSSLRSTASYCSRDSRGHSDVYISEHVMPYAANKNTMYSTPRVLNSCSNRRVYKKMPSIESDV
Outline: (§1)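 Oocytes injected with rat GluN1/GluN2 cRNA (1:2), held 2–5 days at 15–17 °C, clamped at −40 mV in Ba2+-containing recording solution, pH 7.4, 23 °C. Compounds applied (up to 100 μM) with 100 μM glutamate plus 30 μM glycine. IC50 and Hill slope from concentration-response fits of averaged current inhibition.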

[2] = system: recombinant GluN2A-D subunits; experiment: Two-electrode voltage-clamp recordings, statements on all receptors; format: cell-based, rat
Protocol: All target compounds were evaluated for activity by the Traynelis laboratory at Emory University using two-electrode voltage-clamp recordings performed in Xenopus laevis oocytes expressing recombinant GluN2A-D subunits (Table 1). […] Two ester compounds 997-65 and 997-66 also performed no inhibition at GluN2A to GluN2D receptors. […] Consequently, for the compounds that Acker et al. already published, it was necessary to increase the concentration to 100 μM when collecting data for a concentration effect curve. […] Therefore, under this condition, we can only conclude that compound 997-67 remained potent at GluN2C/D-containing receptors, but its selectivity over GluN2A- and GluN2B-containing receptors could not be compared to 997-57. […] Finally, replacing the carboxylic acid to the bio-isostere amide yielded compounds 997-96 and 997-115, which dropped the potency 2- to 4-fold in comparison to their corresponding acids 997-74 and 997-114.
Two-electrode voltage-clamp recordings were performed in Xenopus laevis oocytes that were injected with mRNA to express recombinant rat GluN1/GluN2A, GluN1/GluN2B, GluN1/GluN2C, and GluN1/GluN2D. The recordings using unfertilized oocytes from Xenopus laevis were permitted by Emory University Institutional Animal Care and Use Committee (IACUC). An automatic injector (Nanoject II, Drummond Scientific) was used for cRNA injection using the pipettes filled with mineral oil. The cRNA that transcribed in vitro via the mMessage Machine kit (Ambion) was diluted with nuclease-free water, and then injected at GluN1/GluN2 with a ratio of 1:2. The oocytes were stored in Barth's solution that contained 88 mM NaCl, 5.0 mM Tris-HCl, 2.4 mM NaHCO3, 1.0 mM KCl, 0.84 mM MgSO4, 0.41 mM CaCl2, 0.33 mM Ca(NO3)2, 0.1 mg/ml gentamycin sulfate, 1.0 U/ml penicillin, and 1 μg/ml streptomycin at a pH of 7.4 and temperatures of 15-17° C. for two to five days before the two-electrode voltage-clamp recordings. When recording, the oocytes were placed in a perfusion chamber and continually washed with the recording solution comprised of 90 mM NaCl, 1.0 mM KCl, 0.50 mM BaCl2, 0.005 mM EDTA, and 10 mM HEPES at a pH of 7.4 and a temperature of 23° C. Glass electrodes with a tip resistance of 0.5 to 2.5 MΩ were obtained from thin-walled glass capillary tubes. Voltage electrodes and current electrodes were filled with 0.3 M and 3.0 M KCl, respectively. The recordings were executed with the oocytes membrane potential holding at −40 m V by an OC-725 amplifier (Warner Instrument Co). All compounds were dissolved in dimethyl sulfoxide (DMSO) as 20 mM stock solutions and future diluted to reach the desired concentration (0.05-0.5% (vol/vol) DMSO) in recording solution comprised of 30 μM glycine and 100 μM glutamate. Each compound was recorded 3-7 times in the least 4 oocytes from at least 2 different Xenopus laevis.
To evaluate the inhibition of compounds, the concentration-response curve was fitted with the average two-electrode voltage-clamp recording results with the equation
[formula] • where IC50 is the concentration of compounds that inhibit half maximal of the current response and N is the Hill slope.

[3] = target: T2, recombinant rat GluN1/GluN2D (Rattus norvegicus, UniProt Q62645); experiment: Two-electrode voltage-clamp recordings in Xenopus laevis oocytes, GluN2D; format: cell-based; settings: oocytes, 100 μM glutamate and 30 μM glycine
T2 construct: expressed in transfected cells; host or cells: Xenopus laevis oocytes injected with cRNA (GluN1:GluN2 ratio 1:2)
Outline: as §1

[4] = target: T3, recombinant rat GluN1/GluN2C (Rattus norvegicus, UniProt Q00961); experiment: Two-electrode voltage-clamp recordings in Xenopus laevis oocytes, GluN2C; format: cell-based; settings: oocytes, 100 μM glutamate and 30 μM glycine
T3 construct: expressed in transfected cells; host or cells: Xenopus laevis oocytes injected with cRNA (GluN1:GluN2 ratio 1:2)
T3 sequence (Q00961 20-1237, other chains not shown): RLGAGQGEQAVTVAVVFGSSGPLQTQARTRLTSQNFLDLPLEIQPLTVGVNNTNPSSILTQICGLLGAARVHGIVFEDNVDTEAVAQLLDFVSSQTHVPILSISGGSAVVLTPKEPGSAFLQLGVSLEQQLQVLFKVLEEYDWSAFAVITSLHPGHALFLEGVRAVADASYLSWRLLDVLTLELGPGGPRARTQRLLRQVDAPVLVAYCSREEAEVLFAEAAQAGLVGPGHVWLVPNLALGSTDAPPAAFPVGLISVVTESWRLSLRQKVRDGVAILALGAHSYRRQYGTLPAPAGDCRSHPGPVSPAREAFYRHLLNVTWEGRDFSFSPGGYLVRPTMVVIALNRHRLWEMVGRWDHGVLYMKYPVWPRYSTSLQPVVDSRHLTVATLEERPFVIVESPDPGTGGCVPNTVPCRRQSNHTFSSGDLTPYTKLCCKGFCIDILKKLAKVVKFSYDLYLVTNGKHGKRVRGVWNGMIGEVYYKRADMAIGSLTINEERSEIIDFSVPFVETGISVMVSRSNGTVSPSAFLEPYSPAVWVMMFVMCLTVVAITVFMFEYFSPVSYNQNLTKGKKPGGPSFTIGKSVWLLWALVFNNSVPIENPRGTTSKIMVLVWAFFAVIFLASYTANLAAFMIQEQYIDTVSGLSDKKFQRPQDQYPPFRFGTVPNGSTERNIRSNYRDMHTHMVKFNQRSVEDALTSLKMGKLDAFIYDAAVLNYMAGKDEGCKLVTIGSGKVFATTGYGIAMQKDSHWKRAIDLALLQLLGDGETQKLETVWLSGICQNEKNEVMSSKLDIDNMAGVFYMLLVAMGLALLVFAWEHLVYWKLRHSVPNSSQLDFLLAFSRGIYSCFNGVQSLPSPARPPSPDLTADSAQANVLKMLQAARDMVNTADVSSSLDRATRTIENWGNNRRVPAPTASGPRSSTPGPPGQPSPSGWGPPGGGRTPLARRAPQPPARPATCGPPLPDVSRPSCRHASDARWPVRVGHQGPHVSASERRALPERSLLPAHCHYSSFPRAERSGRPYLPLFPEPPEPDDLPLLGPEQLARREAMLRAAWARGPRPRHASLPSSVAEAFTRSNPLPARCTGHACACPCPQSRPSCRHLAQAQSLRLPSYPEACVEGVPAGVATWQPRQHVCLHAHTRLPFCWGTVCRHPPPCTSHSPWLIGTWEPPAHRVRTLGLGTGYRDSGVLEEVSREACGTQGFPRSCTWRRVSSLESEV
Outline: as §1

[5] = target: T4, recombinant rat GluN1/GluN2B (Rattus norvegicus, UniProt Q00960); experiment: Two-electrode voltage-clamp recordings in Xenopus laevis oocytes, GluN2B; format: cell-based; settings: oocytes, 100 μM glutamate and 30 μM glycine
T4 construct: expressed in transfected cells; host or cells: Xenopus laevis oocytes injected with cRNA (GluN1:GluN2 ratio 1:2)
T4 sequence (Q00960 27-1482, other chains not shown): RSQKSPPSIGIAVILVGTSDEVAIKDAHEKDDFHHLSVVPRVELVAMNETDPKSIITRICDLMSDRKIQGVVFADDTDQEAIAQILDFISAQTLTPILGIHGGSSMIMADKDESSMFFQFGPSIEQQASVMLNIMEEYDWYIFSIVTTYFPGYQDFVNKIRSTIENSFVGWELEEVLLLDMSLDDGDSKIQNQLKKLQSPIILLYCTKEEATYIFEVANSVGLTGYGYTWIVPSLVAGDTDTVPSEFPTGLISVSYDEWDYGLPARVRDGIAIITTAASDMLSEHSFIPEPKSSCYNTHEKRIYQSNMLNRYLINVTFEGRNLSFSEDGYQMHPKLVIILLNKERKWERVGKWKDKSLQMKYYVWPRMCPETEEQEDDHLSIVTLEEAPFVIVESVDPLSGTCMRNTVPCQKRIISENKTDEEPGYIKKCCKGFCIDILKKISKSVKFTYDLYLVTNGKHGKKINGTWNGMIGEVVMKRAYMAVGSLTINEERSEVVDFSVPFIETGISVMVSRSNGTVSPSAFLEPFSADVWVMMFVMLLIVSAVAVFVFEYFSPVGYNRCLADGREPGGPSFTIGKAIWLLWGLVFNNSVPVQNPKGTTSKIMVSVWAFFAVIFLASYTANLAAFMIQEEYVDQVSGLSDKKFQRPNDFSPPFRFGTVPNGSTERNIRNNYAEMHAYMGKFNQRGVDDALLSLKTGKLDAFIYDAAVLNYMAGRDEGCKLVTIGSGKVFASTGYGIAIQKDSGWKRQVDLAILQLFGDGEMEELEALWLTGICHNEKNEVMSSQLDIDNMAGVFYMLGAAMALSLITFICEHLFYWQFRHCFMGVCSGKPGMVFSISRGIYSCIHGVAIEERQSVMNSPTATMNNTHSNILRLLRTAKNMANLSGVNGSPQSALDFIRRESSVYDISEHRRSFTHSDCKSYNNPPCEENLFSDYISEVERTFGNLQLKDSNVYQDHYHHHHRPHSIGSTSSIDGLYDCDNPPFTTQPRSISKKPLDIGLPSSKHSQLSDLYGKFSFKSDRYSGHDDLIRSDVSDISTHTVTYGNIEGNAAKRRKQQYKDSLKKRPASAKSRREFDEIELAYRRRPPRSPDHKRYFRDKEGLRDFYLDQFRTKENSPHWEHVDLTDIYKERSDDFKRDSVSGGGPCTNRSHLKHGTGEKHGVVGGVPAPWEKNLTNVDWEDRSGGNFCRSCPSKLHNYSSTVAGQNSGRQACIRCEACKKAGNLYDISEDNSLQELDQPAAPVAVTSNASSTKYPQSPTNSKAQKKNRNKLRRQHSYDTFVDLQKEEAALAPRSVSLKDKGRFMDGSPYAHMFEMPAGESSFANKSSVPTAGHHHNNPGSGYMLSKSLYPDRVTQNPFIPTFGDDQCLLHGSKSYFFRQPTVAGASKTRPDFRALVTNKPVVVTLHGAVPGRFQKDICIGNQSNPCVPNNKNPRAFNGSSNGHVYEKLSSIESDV
Outline: as §1

## CCOC(=O)C(F)(F)CC(=O)N1N=C(c2c(-c3cccc(F)c3)c3ccccc3[nH]c2=O)CC1c1ccc(Cl)cc1 (stereo not shown) [997-65, Ethyl 4-{5-(4-chlorophenyl)-3-[4-(3-fluorophenyl)-2-oxo-1,2-dihydroquinolin-3-yl]-4,5-dihydro-1H-pyrazol-1-yl}-2,2-difluoro-4-oxobutanoate]
[1]
  GluN2A IC50: NE (NE indicates less than 50% inhibition at 30 μM.)
[2]
  activity at all receptors (GluN2A to GluN2D), in words: no inhibition
[3]
  GluN2D IC50: NE (NE indicates less than 50% inhibition at 30 μM.)
[4]
  GluN2C IC50: NE (NE indicates less than 50% inhibition at 30 μM.)
[5]
  GluN2B IC50: NE (NE indicates less than 50% inhibition at 30 μM.)

## CCOC(=O)C(F)(F)CC(=O)N1N=C(c2c(-c3ccc(Cl)cc3)c3ccccc3[nH]c2=O)CC1c1ccc(Cl)cc1 (stereo not shown) [997-66, Ethyl 4-{5-(4-chlorophenyl)-3-[4-(4-chlorophenyl)-2-oxo-1,2-dihydroquinolin-3-yl]-4,5-dihydro-1H-pyrazol-1-yl}-2,2-difluoro-4-oxobutanoate]
[1]
  GluN2A IC50: NE (NE indicates less than 50% inhibition at 30 μM.)
[2]
  activity at all receptors (GluN2A to GluN2D), in words: no inhibition
[3]
  GluN2D IC50: NE (NE indicates less than 50% inhibition at 30 μM.)
[4]
  GluN2C IC50: NE (NE indicates less than 50% inhibition at 30 μM.)
[5]
  GluN2B IC50: NE (NE indicates less than 50% inhibition at 30 μM.)

## O=c1[nH]c2ccccc2c(-c2ccc(Cl)cc2)c1C1=NNC(c2ccc(Cl)cc2)C1 (stereo not shown) [997-70, 4-(4-chlorophenyl)-3-[5-(4-chlorophenyl)-4,5-dihydro-1H-pyrazol-3-yl]quinolin-2(1H)-one]
[1]
  GluN2A IC50: NE (NE indicates less than 50% inhibition at 30 μM.)
[2]
  activity at all receptors (GluN2A to GluN2D), in words: inactive
[3]
  GluN2D IC50: NE (NE indicates less than 50% inhibition at 30 μM.)
[4]
  GluN2C IC50: NE (NE indicates less than 50% inhibition at 30 μM.)
[5]
  GluN2B IC50: NE (NE indicates less than 50% inhibition at 30 μM.)

## O=C(/C=C/c1ccc(Cl)cc1)c1c(-c2cccc(F)c2)c2ccccc2[nH]c1=O [997-71, (E)-3-[3-(4-chlorophenyl)acryloyl]-4-(3-fluorophenyl)quinolin-2(1H)-one]
[1]
  GluN2A IC50: NE (NE indicates less than 50% inhibition at 30 μM.)
[2]
  activity at all receptors (GluN2A to GluN2D), in words: inactive
[3]
  GluN2D IC50: NE (NE indicates less than 50% inhibition at 30 μM.)
[4]
  GluN2C IC50: NE (NE indicates less than 50% inhibition at 30 μM.)
[5]
  GluN2B IC50: NE (NE indicates less than 50% inhibition at 30 μM.)

## Cc1c(C2=NN(C(=O)CCC(=O)O)C(c3ccc(Cl)cc3)C2)c(=O)[nH]c2ccccc12 (stereo not shown) [997-76, 4-(5-(4-chlorophenyl)-3-(4-methyl-2-oxo-1,2-dihydroquinolin-3-yl)-4,5-dihydro-1H-pyrazol-1-yl)-4-oxobutanoic acid]
[1]
  GluN2A IC50: NE (NE indicates less than 50% inhibition at 30 μM.)
[2]
  activity at all receptors (GluN2A to GluN2D), in words: inactive
[3]
  GluN2D IC50: NE (NE indicates less than 50% inhibition at 30 μM.)
[4]
  GluN2C IC50: NE (NE indicates less than 50% inhibition at 30 μM.)
[5]
  GluN2B IC50: NE (NE indicates less than 50% inhibition at 30 μM.)

## O=C(O)CCC(=O)N1N=C(c2c(-c3ccc(Cl)cc3)c3ccccc3[nH]c2=O)CC1c1ccncc1 (stereo not shown) [997-79, 4-(3-(4-(4-chlorophenyl)-2-oxo-1,2-dihydroquinolin-3-yl)-5-(pyridin-4-yl)-4,5-dihydro-1H-pyrazol-1-yl)-4-oxobutanoic acid]
[1]
  GluN2A IC50: NE (NE indicates less than 50% inhibition at 30 μM.)
[2]
  activity at all receptors (GluN2A to GluN2D), in words: inactive
[3]
  GluN2D IC50: NE (NE indicates less than 50% inhibition at 30 μM.)
[4]
  GluN2C IC50: NE (NE indicates less than 50% inhibition at 30 μM.)
[5]
  GluN2B IC50: NE (NE indicates less than 50% inhibition at 30 μM.)

## O=C(O)CCC(=O)N1N=C(c2c(-c3ccc(Cl)cc3)c3ccccc3[nH]c2=O)CC1c1cnccn1 (stereo not shown) [997-80, 4-(3-(4-(4-chlorophenyl)-2-oxo-1,2-dihydroquinolin-3-yl)-5-(pyrazin-2-yl)-4,5-dihydro-1H-pyrazol-1-yl)-4-oxobutanoic acid]
[1]
  GluN2A IC50: NE (NE indicates less than 50% inhibition at 30 μM.)
[2]
  activity at all receptors (GluN2A to GluN2D), in words: inactive
[3]
  GluN2D IC50: NE (NE indicates less than 50% inhibition at 30 μM.)
[4]
  GluN2C IC50: NE (NE indicates less than 50% inhibition at 30 μM.)
[5]
  GluN2B IC50: NE (NE indicates less than 50% inhibition at 30 μM.)

## O=C(O)CCC(=O)N1N=C(c2c(-c3ccc(Cl)cc3)c3ccccc3[nH]c2=O)CC1c1cccnc1 (stereo not shown) [997-83, 4-(3-(4-(4-chlorophenyl)-2-oxo-1,2-dihydroquinolin-3-yl)-5-(pyridin-3-yl)-4,5-dihydro-1H-pyrazol-1-yl)-4-oxobutanoic acid]
[1]
  GluN2A IC50: NE (NE indicates less than 50% inhibition at 30 μM.)
[2]
  activity at all receptors (GluN2A to GluN2D), in words: inactive
[3]
  GluN2D IC50: NE (NE indicates less than 50% inhibition at 30 μM.)
[4]
  GluN2C IC50: NE (NE indicates less than 50% inhibition at 30 μM.)
[5]
  GluN2B IC50: NE (NE indicates less than 50% inhibition at 30 μM.)

## O=C(O)CCC(=O)N1N=C(c2c(-c3ccc(Cl)cc3)c3ccccc3[nH]c2=O)CC1c1ccncc1Cl (stereo not shown) [997-88, 4-(3-(4-(4-chlorophenyl)-2-oxo-1,2-dihydroquinolin-3-yl)-5-(3-chloropyridin-4-yl)-4,5-dihydro-1H-pyrazol-1-yl)-4-oxobutanoic acid]
[1]
  GluN2A IC50: NE (NE indicates less than 50% inhibition at 30 μM.)
[2]
  activity at all receptors (GluN2A to GluN2D), in words: inactive
[3]
  GluN2D IC50: NE (NE indicates less than 50% inhibition at 30 μM.)
[4]
  GluN2C IC50: NE (NE indicates less than 50% inhibition at 30 μM.)
[5]
  GluN2B IC50: NE (NE indicates less than 50% inhibition at 30 μM.)

## O=C(O)CC(F)(F)C(=O)N1N=C(c2ccccc2-c2cccc(F)c2)CC1c1ccc(Cl)cc1 (stereo not shown) [997-100, 4-(5-(4-chlorophenyl)-3-(3′-fluoro-[1,1′-biphenyl]-2-yl)-4,5-dihydro-1H-pyrazol-1-yl)-3,3-difluoro-4-oxobutanoic acid]
[1]
  GluN2A IC50: NE (NE indicates less than 50% inhibition at 30 μM.)
[2]
  activity at all receptors (GluN2A to GluN2D), in words: lost the activity
[3]
  GluN2D IC50: NE (NE indicates less than 50% inhibition at 30 μM.)
[4]
  GluN2C IC50: NE (NE indicates less than 50% inhibition at 30 μM.)
[5]
  GluN2B IC50: NE (NE indicates less than 50% inhibition at 30 μM.)

## O=C(O)CC(F)(F)C(=O)N1N=C(c2ccccc2-c2ccc(Cl)cc2)CC1c1cccc2c1OCO2 (stereo not shown) [997-119, 4-(5-(benzo[d][1,3]dioxol-4-yl)-3-(4′-chloro-[1,1′-biphenyl]-2-yl)-4,5-dihydro-1H-pyrazol-1-yl)-3,3-difluoro-4-oxobutanoic acid]
[1]
  GluN2A IC50: NE (NE indicates less than 50% inhibition at 30 μM.)
[2]
  activity at all receptors (GluN2A to GluN2D), in words: inactive
[3]
  GluN2D IC50: NE (NE indicates less than 50% inhibition at 30 μM.)
[4]
  GluN2C IC50: NE (NE indicates less than 50% inhibition at 30 μM.)
[5]
  GluN2B IC50: NE (NE indicates less than 50% inhibition at 30 μM.)
